Data set [1] is described as follows: Half life in human HCC70 cells xenografted in female nu/nu mouse plasma at 1 mg/kg, po administered once daily. It is filed as ADME, organism-based. (In general: A xenograft is tissue or cells of one species grown in another, often human tumour cells in immunodeficient mice.)
Data set [2] is described as follows: Half life in human OVCAR-3 cells xenografted in female Balb/c nude mouse plasma at 5 mg/kg, po administered once daily. It counts as ADME, organism-based.
A short description of data set [3]: Cmax in human OVCAR-3 cells xenografted in female Balb/c nude mouse plasma at 20 mg/kg, po administered once daily. It is filed as ADME, organism-based.
A short description of data set [4]: Cmax in human OVCAR-3 cells xenografted in female Balb/c nude mouse plasma at 5 mg/kg, po administered once daily. It counts as ADME, organism-based.
Data set [5] is described as follows: Plasma stability in human assessed as half life. It counts as ADME, cell-free.
A short description of data set [6]: Half life in human OVCAR-3 cells xenografted in female Balb/c nude mouse plasma at 20 mg/kg, po administered once daily. It counts as ADME, organism-based.
Data set [7] in a line: Oral bioavailability in dog at 2 mg/kg. It counts as ADME, organism-based, Canis lupus familiaris. Conditions: in vivo.
The nature of data set [8]: Volume of distribution at steady state in rat at 1 mg/kg, iv. It is filed as ADME, organism-based. The conditions noted are these: in vivo, read-out: Vdss.
Data set [9] concerns the target Cyclin-dependent kinase 14/Cyclin-Y (Homo sapiens) (UniProt O94921+Q8ND76). Briefly: Inhibition of CDK14/Cyclin Y (unknown origin) at 200 nM relative to control; values are per cent of control.
Data set [10] is described as follows: Plasma protein binding in rat assessed as unbound fraction. It counts as ADME, cell-free.
Data set [11] can be described thus: AUC (0 to t) in human OVCAR-3 cells xenografted in female Balb/c nude mouse plasma at 5 mg/kg, po administered once daily. It is filed as ADME, organism-based.
A short description of data set [12]: Drug concentration in rat small intestine at 5 mg/kg, po measured after 2 hrs. It counts as ADME, organism-based. The conditions noted are these: read-out: Ct.
The nature of data set [13]: Drug concentration in rat small intestine at 5 mg/kg, po measured after 8 hrs. It is filed as ADME, organism-based. Conditions: read-out: Ct.
Data set [14] can be described thus: Plasma protein binding in mouse assessed as unbound fraction. It is filed as ADME, cell-free.
Data set [15] can be described thus: Clearance in dog at 0.2 mg/kg, iv. It counts as ADME, organism-based, Canis lupus familiaris. The conditions noted are these: in vivo.
Another data set deals with OVCAR-3. The data set can be described thus: cells. The conditions noted are these: Homo sapiens, OVCAR-3, 72 h.
Data set [16] in a line: Cmax in human HCC70 cells xenografted in female nu/nu mouse plasma at 10 mg/kg, po administered once daily. It counts as ADME, organism-based.
Data set [17] in a line: Clearance in rat at 1 mg/kg, iv. It is filed as ADME, organism-based. The conditions noted are these: in vivo.
A short description of data set [18]: AUC(0 to t) in mouse at 5 mg/kg, po. It is filed as ADME, organism-based. The conditions noted are these: in vivo.
Data set [19] in a line: Half life in rat at 5 mg/kg, po. It counts as ADME, organism-based. The conditions noted are these: in vivo.
Another data set deals with Cytochrome P450 2C9 (Homo sapiens, UniProt P11712). Briefly: Inhibition of CYP2C9 (unknown origin). It counts as ADME.
Cytochrome P450 2C9, sequence (P11712 whole entry): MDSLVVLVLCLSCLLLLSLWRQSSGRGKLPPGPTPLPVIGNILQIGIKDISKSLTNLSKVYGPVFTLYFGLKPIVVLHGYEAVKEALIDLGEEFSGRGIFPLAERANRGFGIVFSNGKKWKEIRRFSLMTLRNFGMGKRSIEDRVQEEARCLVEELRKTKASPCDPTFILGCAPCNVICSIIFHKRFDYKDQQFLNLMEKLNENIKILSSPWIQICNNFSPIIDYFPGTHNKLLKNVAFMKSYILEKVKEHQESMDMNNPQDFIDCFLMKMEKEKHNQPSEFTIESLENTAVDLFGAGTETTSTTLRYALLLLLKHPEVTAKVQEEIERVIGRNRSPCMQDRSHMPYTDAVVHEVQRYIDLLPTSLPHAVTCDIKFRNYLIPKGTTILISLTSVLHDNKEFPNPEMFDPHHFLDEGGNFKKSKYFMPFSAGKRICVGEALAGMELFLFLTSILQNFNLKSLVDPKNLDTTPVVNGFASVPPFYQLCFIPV
The target of data set [20] is Cyclin-dependent kinase 7 (Homo sapiens) (UniProt P50613). Briefly: Inhibition of CDK7 (unknown origin) at 200 nM relative to control; values are per cent of control.
Cyclin-dependent kinase 7 (Homo sapiens), sequence (P50613 whole entry): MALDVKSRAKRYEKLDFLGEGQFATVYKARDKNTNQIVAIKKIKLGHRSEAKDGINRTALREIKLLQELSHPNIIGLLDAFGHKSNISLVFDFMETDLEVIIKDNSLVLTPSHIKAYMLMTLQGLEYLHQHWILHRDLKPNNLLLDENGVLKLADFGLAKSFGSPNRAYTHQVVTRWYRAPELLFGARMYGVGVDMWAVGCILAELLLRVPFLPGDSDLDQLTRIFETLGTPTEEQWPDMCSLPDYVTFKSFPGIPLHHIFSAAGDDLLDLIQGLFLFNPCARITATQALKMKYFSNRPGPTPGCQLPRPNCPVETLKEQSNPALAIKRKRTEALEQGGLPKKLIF
Data set [21] in a line: Clearance in mouse at 1 mg/kg, iv. It is filed as ADME, organism-based. Conditions: in vivo.
For the next data set, the system named is Mus musculus. The data set can be described thus: Downregulation of Myc protein in female Balb/c nude mouse xenografted with human HCC70 cells administered once daily for 7 days. It counts as functional. Conditions: dose 2-10 mg/kg, time 7.0 day.

Each structure is given as a SMILES string. A value given as a limit tells only on which side of the number the result lay.

Description for OVCAR-3: Antiproliferative activity against human OVCAR-3 cells assessed as inhibition of cell proliferation incubated for 72 hrs by celltiter-glo assay

Take `CN1CC(F)(F)CCN(C)[C@H]2CC[C@@H](C2)Nc2ncc(C(F)(F)F)c(n2)-c2c[nH]c3c(P(C)(C)=O)c(ccc23)C1=O`: the half-life (in general, the time needed for the level to fall by half in the phase considered) in data set [1] was 2 h; in data set [2], 2.8 h; in [5], over 4.82 h; in data set [6], 3.4 h; in [19] it was 1.4 h. The maximum concentration (Cmax) (usually the peak of the concentration-time curve) was found to be 1690 ng/mL in data set [3], 400 ng/mL in data set [4] and 401 ng/mL in data set [16]. For the same compound, the bioavailability in [7] is 147%. In addition, the Vd in data set [8] came out at 2.6 L/kg. Also, the residual activity (commonly the share of the control activity or signal that is left under treatment) in [9] is 1.3%; in data set [20], 0.35%. Further, the free fraction (fraction unbound) (as a rule, free concentration divided by total concentration) is 0.044 in [10] and 0.036 in [14]. The exposure AUC(0-t) (commonly exposure summed from dosing to a finite time, without extrapolation to infinity) in [11] worked out at 694 ng·h/mL; in data set [18] it was 938 ng·h/mL. Further, the concentration at 2 h in data set [12] turned out to be 3230 ng/g. Also, the concentration at 8 h in data set [13] worked out at 67 ng/g. The clearance (in general, the volume of plasma or blood freed of the substance per unit of time) in data set [15] is 1.2 mL/min/kg; in data set [17], 39.9 mL/min/kg; in [21] it was 52.6 mL/min/kg. Also, the concentration for half-maximal inhibition (IC50) (as a rule, the midpoint of a concentration-inhibition curve) was determined as 0.057 µM in the data set on OVCAR-3 and 41.9 µM against Cytochrome P450 2C9. Moreover, the Activity result in the data set on Mus musculus was “Dose-dependent-effect”.

The record behind these values is ChEMBL document CHEMBL6092221, “Discovery of a Novel Macrocyclic Noncovalent CDK7 Inhibitor for Cancer Therapy” (J Med Chem, 2024).
